# How the values were obtained:
# [1] = biological target: T1, PylRS_AF (Methanosarcina mazei, UniProt Q8PWY1, Y306A/Y384F); assay: PylRS_AF-mediated amber suppression in GFP-Y39TAG (GFP expression in E. coli); format: cell-based; conditions: for expression of full-length GFP by cellular fluorescence / GFP expression, SDS PAGE of Ni-NTA-purified GFP / yield of purified GFP-Y39→ncAA: E. coli; for expression of full-length GFP by cellular fluorescence / yield of purified GFP-Y39→ncAA: PylRS_AF; for GFP expression, SDS PAGE of Ni-NTA-purified GFP: pREP-PylRS_AF, pBAD_GFP-Y39TAG; for efficiency and accuracy of incorporation into peptides: Figure 2, whole cell fluorescence
# T1 construct: expressed in transfected cells
# Source text: (§1) Protein Expression and Purification. All proteins were expressed from pBAD vectors and purified using a C-terminal His6 tag. For expression of proteins containing ncAA, E. coli cells were co-transformed with pBAD plasmid containing the target gene with amber codon (pBAD_GFP-39TAG, pBAD_TRX-R74-His6_TAG, pBAD_CmodC or pBAD_TAT, all conferring ampicillin resistance) and a plasmid coding for the respective PylRS mutant and tRNA^Pyl (pEVOL_PylRS_AF, pREP_PylRS_wt, _GF, _AF and PylRS_AF single or double alanine mutants). A single clone was picked and grown in Luria Broth (LB) media supplemented with suited antibiotics at 37 °C and 200 rpm shaking. 0.1 ml of this culture was used to inoculate 5 ml LB supplemented with the same antibiotics and different concentrations of the ncAA. The culture was incubated at 37 °C and 200 rpm shaking until OD600 of ∼0.4 - 0.6 and protein expression was induced with 0.02% (w/v) L-arabinose. The culture was harvested after 4 - 6 h of incubation by centrifugation (10 min, 3320 x g, room temperature). The pellet was lysed with B-Per lysis reagent (Thermo scientific) containing 1x Complete (-EDTA) protease inhibitor cocktail (Roche) and shaking at room temperature at 1400 rpm for 30 min. The suspension was pelleted by centrifugation (5 min, 20817 x g, room temperature) the supernatant was extracted with Ni-NTA agarose slurry (Qiagen) at an imidazole concentration of 10 mM by shaking at room temperature. The beads were washed with 350 µl 4x PBS and or two wash buffers (50 mM NaH2PO4, 300 mM NaCl, pH = 8.0, containing 20 - 50 mM imidazole). Proteins were eluted with elution buffer (50 mM NaH2PO4, 300 mM NaCl, pH = 8.0, containing 500 mM imidazole). For GFP-TAT protein containing ncAA 6, expressions were carried out in BL21 (DE3) gold and purification was conducted as above, but under denaturing conditions (8 M urea). Protein was refolded by stepwise dialysis against 20 mM Tris-HCl, pH = 8.0, 10 % glycerole with decreasing urea concentrations. Purity of the obtained proteins was analyzed by SDS PAGE and staining with Gelcode blue (Thermo Scientific) and quantified using a BCA assay (Pierce, Thermo Scientific). For GFP yield determination based on whole cell fluorescence, cell pellets from 3 ml expressions were washed twice with 3 ml 4x PBS (by centrifugation for 10 min at 3320 x g at room temperature and resuspension) and fluorescence was determined using a Tecan M200 plate reader using and excitation wavelength of 475 nm and an emission wavelength of 510 nm. Fluorescence values were corrected for cell densities based on OD600 - measurements. Generally, expressions were carried out in E. coli Top10 using carbenicillin selection for pEVOL plasmids and tetracyclin selection for pREP plasmids. Wild type thioredoxin and TRX-R74→6 were expressed in E. coli BL21 (DE3) gold cells. Expressed C-terminal fragment of PylRS_AF (aa 188-454) was stored in 10 mM HEPES-Na+, pH = 7.5, 5 mM MgCl2, 300 mM NaCl at -80 °C before use.
# Next, the tRNA^Pyl/PylRS pair of Methanosarcina mazei was analyzed for its capability to mediate the selective incorporation of ncAA 3 into proteins in E. coli in response to the amber codon, TAG. E. coli were co-transformed with plasmids pEVOL-PylRS_wt (encoding wild type M. mazei PylRS and tRNA^Pyl) and pBAD_GFP-39TAG (encoding GFP with an amber mutation at position Y39 and a C-terminal His6 tag) and the culture induced with L-arabinose in the presence or absence of 1 mM ncAA 3 or Nε-(tert-butyloxycarbonyl)-L-lysine (Boc-Lys, ncAA 2), which is an efficiently processed substrate of PylRS_wt. However, expression of full-length GFP was only detected for ncAA 2 by cellular fluorescence. […] Among amino acids that constitute the methyl-pyrroline binding pocket of PylRS, Y306 is a main component of the rear part and plays a critical role in discriminating against larger, Nε-carbamate-linked lysine derivatives. […]
# [2] = biological target: T2, PylRS_AF_D408A (Methanosarcina mazei, UniProt Q8PWY1, D408A/Y306A/Y384F); assay: PylRS_AF D408A-mediated amber suppression in GFP-Y39TAG (cellular GFP expression in E. coli); format: cell-based; conditions: pREP_PylRS_AF_D408A, pBAD_GFP-39TAG
# T2 construct: expressed in transfected cells
# Source text: (§2) Protein Expression and Purification. All proteins were expressed from pBAD vectors and purified using a C-terminal His6 tag. For expression of proteins containing ncAA, E. coli cells were co-transformed with pBAD plasmid containing the target gene with amber codon (pBAD_GFP-39TAG, pBAD_TRX-R74-His6_TAG, pBAD_CmodC or pBAD_TAT, all conferring ampicillin resistance) and a plasmid coding for the respective PylRS mutant and tRNA^Pyl (pEVOL_PylRS_AF, pREP_PylRS_wt, _GF, _AF and PylRS_AF single or double alanine mutants). A single clone was picked and grown in Luria Broth (LB) media supplemented with suited antibiotics at 37 °C and 200 rpm shaking. 0.1 ml of this culture was used to inoculate 5 ml LB supplemented with the same antibiotics and different concentrations of the ncAA. […] Purity of the obtained proteins was analyzed by SDS PAGE and staining with Gelcode blue (Thermo Scientific) and quantified using a BCA assay (Pierce, Thermo Scientific). For GFP yield determination based on whole cell fluorescence, cell pellets from 3 ml expressions were washed twice with 3 ml 4x PBS (by centrifugation for 10 min at 3320 x g at room temperature and resuspension) and fluorescence was determined using a Tecan M200 plate reader using and excitation wavelength of 475 nm and an emission wavelength of 510 nm. Fluorescence values were corrected for cell densities based on OD600 - measurements. […]
# [3] = biological target: T3, PylRS_AF_L407A (Methanosarcina mazei, UniProt Q8PWY1, L407A/Y306A/Y384F); assay: PylRS_AF L407A-mediated amber suppression in GFP-Y39TAG (cellular GFP expression in E. coli); format: cell-based; conditions: pREP_PylRS_AF_L407A, pBAD_GFP-39TAG
# T3 construct: expressed in transfected cells
# Source text: as §2
# [4] = biological target: T4, PylRS_GF (Methanosarcina mazei, UniProt Q8PWY1, Y306G/Y384F); assay: PylRS_GF-mediated amber suppression in GFP-Y39TAG (GFP expression in E. coli); format: cell-based; conditions: pREP-PylRS_GF (Y306G), pBAD_GFP-Y39TAG
# T4 construct: expressed in transfected cells
# Source text: as §2
# [5] = biological target: T5, PylRS_wt (Methanosarcina mazei, UniProt Q8PWY1); assay: PylRS_wt-mediated amber suppression in GFP-Y39TAG (GFP expression in E. coli); format: cell-based; conditions: for expression of full-length GFP by cellular fluorescence: pEVOL-PylRS_wt, pBAD_GFP-39TAG, 1 mM ncAA; for GFP expression, SDS PAGE of Ni-NTA-purified GFP: pREP-PylRS_wt, pBAD_GFP-Y39TAG
# T5 construct: expressed in transfected cells
# Source text: as §1, with “Protein was refolded by stepwise dialysis against 20 mM Tris-HCl, pH = 8.0, 10 % glycerole with decreasing urea concentrations.” left out, “Generally, expressions were carried out in E. coli Top10 using carbenicillin selection for pEVOL plasmids and tetracyclin selection for pREP plasmids. Wild type thioredoxin and TRX-R74→6 were expressed in E. coli BL21 (DE3) gold cells. Expressed C-terminal fragment of PylRS_AF (aa 188-454) was stored in 10 mM HEPES-Na+, pH = 7.5, 5 mM MgCl2, 300 mM NaCl at -80 °C before use.” left out
# Next, the tRNA^Pyl/PylRS pair of Methanosarcina mazei was analyzed for its capability to mediate the selective incorporation of ncAA 3 into proteins in E. coli in response to the amber codon, TAG. […] However, expression of full-length GFP was only detected for ncAA 2 by cellular fluorescence. […]
# [6] = Solubility of the ncAA; format: physicochemical; conditions: limited solubility
# [7] = pBAD_GFP-39TAG, 1 mM ncAA, non-optimized conditions
# T1 sequence (Q8PWY1 whole entry Y306A/Y384F): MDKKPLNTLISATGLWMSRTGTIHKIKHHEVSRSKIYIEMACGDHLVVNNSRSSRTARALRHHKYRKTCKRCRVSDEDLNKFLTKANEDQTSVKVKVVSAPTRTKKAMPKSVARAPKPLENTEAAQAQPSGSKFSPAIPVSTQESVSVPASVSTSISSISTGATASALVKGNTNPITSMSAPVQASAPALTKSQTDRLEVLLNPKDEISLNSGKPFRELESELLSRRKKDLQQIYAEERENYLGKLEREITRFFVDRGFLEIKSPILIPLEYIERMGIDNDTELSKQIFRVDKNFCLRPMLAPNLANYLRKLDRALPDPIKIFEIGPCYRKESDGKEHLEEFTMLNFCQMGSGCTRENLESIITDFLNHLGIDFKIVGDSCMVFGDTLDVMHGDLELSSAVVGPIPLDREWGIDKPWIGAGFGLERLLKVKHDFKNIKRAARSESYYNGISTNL
# T5 sequence (Q8PWY1 whole entry): as the sequence (Q8PWY1 whole entry Y306A/Y384F) above, with A306Y, F384Y counted along it
# T4 sequence (Q8PWY1 whole entry Y306G/Y384F): as the sequence (Q8PWY1 whole entry Y306A/Y384F) above, with A306G counted along it
# T3 sequence (Q8PWY1 whole entry Y306A/Y384F/L407A): as the sequence (Q8PWY1 whole entry Y306A/Y384F) above, with L407A counted along it
# T2 sequence (Q8PWY1 whole entry Y306A/Y384F/D408A): as the sequence (Q8PWY1 whole entry Y306A/Y384F) above, with D408A counted along it
compound,measurement,setting,value
N[C@@H](CCCCNC(=O)c1nc2ccccc2nc1O)C(=O)O [Nε-(2-hydroxyquinoxaline-3-carbonyl)-L-lysine],expression of full-length GFP by cellular fluorescence,[1]; pBAD_GFP-39TAG,no significant fluorescence increase compared to background
"CC(C)(C)OC(=O)NCCCC[C@H](N)C(=O)O [ncAA 2, Nε-(tert-butyloxycarbonyl)-L-lysine, reference compound]",cellular GFP expression,[2],significant levels
same,"GFP expression, SDS PAGE of Ni-NTA-purified GFP",[1],significant expression
same,cellular GFP expression,[3],significant levels
same,"GFP expression, SDS PAGE of Ni-NTA-purified GFP",[4],significant expression
same,expression of full-length GFP by cellular fluorescence,[5],detected
"N[C@@H](CCCCNC(=O)c1cnc2ccccc2n1)C(=O)O [ncAA 3, Nε-(quinoxaline-2-carbonyl)-L-lysine]",yield of purified GFP-Y39→ncAA,[1]; [7],1.4 mg/L
same,expression of full-length GFP by cellular fluorescence,[5],failure of amber suppression
same,"GFP expression, SDS PAGE of Ni-NTA-purified GFP",[5],not recognized
"N[C@@H](CCCCNC(=O)c1ccc2ccccc2n1)C(=O)O [ncAA 5, Nε-(quinoline-2-carbonyl)-L-lysine]",cellular GFP expression,[2],significant levels
same,yield of purified GFP-Y39→ncAA,[1]; standard expression conditions,> 11 mg/L
same,yield of purified GFP-Y39→ncAA,[1]; [7],4.5 mg/L
same,"GFP expression, SDS PAGE of Ni-NTA-purified GFP",[1],significant expression
same,cellular GFP expression,[3],significant levels
same,"GFP expression, SDS PAGE of Ni-NTA-purified GFP",[4],significant expression
same,"GFP expression, SDS PAGE of Ni-NTA-purified GFP",[5],not recognized
"N[C@@H](CCCCNC(=O)c1cc2ccccc2cn1)C(=O)O [ncAA 6, Nε-(isoquinoline-3-carbonyl)-L-lysine]",yield of purified GFP-Y39→ncAA,[1]; [7],1.4 mg/L
same,efficiency and accuracy of incorporation into peptides,[1],best results
"N[C@@H](CCCCNC(=O)c1ccc2ccccc2c1)C(=O)O [ncAA 7, Nε-(naphtalene-2-carbonyl)-L-lysine]",expression of full-length GFP by cellular fluorescence,[1]; pBAD_GFP-39TAG,no expression
same,solubility,[6],~100 µM
(S)-2-amino-6-(((benzo[h]quinolin-2-ylmethoxy)carbonyl)amino) hexanoic acid [ncAA 8],efficiency and accuracy of incorporation into peptides,[1],best results

# — patent EP3024823B1, “INTERCALATING AMINO ACIDS” (priority 2013, dated 2015)
